# Several values for one entry are separate records, joined by “and”; a condition that tells them apart may be missing. Identical values can stand only once. Entries after “also recorded” stand apart in the source; their conditions may differ.
# How the values were obtained:
# Assay type in all cases: in vivo, mouse
# [1] = test system: autosomal Alport mice (COL4A3^−/−); assay: Early intervention study in Alport mice (treated from 3-7 weeks of age)
# Excerpt: (§1) Vehicle or sparsentan was given daily by oral gavage to autosomal Alport mice (COL4A3^−/−) on the 129/Sv background (male and female) in five separate studies: a pilot study, an early intervention study (treated from 3-7 weeks of age), a late intervention study (treated from 5-7 weeks of age after the onset of glomerular (GM) changes), a lifespan study, and a hearing study (FIG. 1). The early intervention, late intervention, lifespan, and hearing studies also included mice treated with a comparator, losartan, which was given orally at 3-4 weeks of age in the early intervention study, in drinking water at 4-7 weeks of age in the early intervention study, and in drinking water at 5-7 weeks in the late intervention study.
# (§2) Efficacy renal endpoints included blood urea nitrogen (BUN), proteinuria (urine protein to creatinine ratio, or UP/C), glomerulosclerosis, tubulointerstitial fibrosis, leucocyte infiltration, and glomerular basement morphology (GBM) using transmission electron microscopy (TEM). Endpoints in the inner ear included auditory brain stem response (ABR) threshold as a measure of noise-induced hearing loss, strial capillary basement membrane thickness, and inner ear pathology by TEM.
# In the early intervention study, wild-type and Alport mice were dosed daily by oral gavage with vehicle or sparsentan at 120 mg/kg from 3 to 7 weeks of age (7-8 mice per group), or with losartan at 20 mg/kg by oral gavage from 3-4 weeks of age (during weaning) and 10 mg/kg in drinking water from 4-7 weeks of age.
# (§3) For the pilot, early intervention, late intervention, and lifespan studies, spot urine was sampled pre-study and weekly during treatment and analyzed for protein (UP) and creatinine (C) to determine proteinuria (UP/C). At the end of each study the animals were euthanized, blood samples were taken, BUN was measured from serum, and kidneys were harvested for structural and immuno-fluorescent measurements. Glomerulosclerosis was assessed by immunofluorescence (IF) using an antibody to fibronectin (FN). Visual counting of the number of sclerotic glomeruli as a proportion of the total number of glomeruli per slide was used to calculate the percentage of sclerotic glomeruli. Sections were co-stained with an anti-CD45 antibody to indicate leucocyte infiltration. Tubulointerstitial fibrosis was determined by IF of kidney sections using an antibody to collagen 1 (COL1). Tubulointerstitial fibrosis (TIF) scoring was conducted by visual assessment of the COL1 positive area as a percentage of the total cortical area and was performed blinded. The fibrosis scoring (“Fibrosis Score”) was categorized according to visual judgment of percentage of total cortical area, as: 0=<5%, 1=5-10%, 2=10-25%, 3=25-50%, 4=50-75%, or 5=75-100%. Ultrastructural changes in GBM and podocyte morphology were observed using transmission electron microscopy (TEM).
# [2] = test system: autosomal Alport mice (COL4A3^−/−); assay: Hearing study in Alport mice (ABR, noise exposure, strial capillary basement membrane TEM)
# Excerpt: as §1, §2
# For the hearing study, wild-type or Alport mice were treated according to daily from 3-8.5 weeks of age by oral gavage with vehicle (0.5% methylcellulose 4000 cps/0.25% Tween® 80 in distilled water) or 120 mg/kg sparsentan or losartan at 20 mg/kg by oral gavage from 3-4 weeks of age (during weaning) and 10 mg/kg in drinking water from 4-7 weeks of age (n=5). The progression of Alport disease was assessed at 7 weeks of age by the amount of proteinuria (via urinalysis reagent strips—data not shown). Strial capillary basement membrane (SCBM) width was analyzed by transmission electron microscopy (TEM), and accumulation of extracellular matrix (ECM) in SCBM was determined by immunofluorescence (IF) microscopy using an antibody to laminin α2. Hearing ability and sensitivity to noise were assessed between 7 and 8 weeks of age by Auditory Brainstem Response (ABR), pre-noise exposure. A subset of each treatment group was then exposed to a metabolic noise stress for 10 hours. Mice receiving the noise treatment were randomly selected for overstimulation with a 106 dB sound pressure level (SPL), narrow band noise (8-16 kHz) for 10 hours, usually 10 PM to 8 AM. The noise exposure was conducted in a sound-isolation booth. A speaker was suspended from the ceiling. Wire cages with individual compartments were located midway between the floor and speaker. Mice were hydrated prior to placement in the cage and were provided free access to food. The noise exposure occurred at 8 weeks of age. The amount of hearing loss caused by the metabolic noise exposure was determined 5 days post-exposure.
# [3] = test system: autosomal Alport mice (COL4A3^−/−); assay: Lifespan study in Alport mice
# Excerpt: as §1
# In the lifespan study, Alport mice (n=10) were dosed using the same methodology as in the early intervention study, except that dosing was continued until mice had lost 10% of their peak body weight, after which they were euthanized.
# For the pilot, early intervention, late intervention, and lifespan studies, spot urine was sampled pre-study and weekly during treatment and analyzed for protein (UP) and creatinine (C) to determine proteinuria (UP/C). At the end of each study the animals were euthanized, blood samples were taken, BUN was measured from serum, and kidneys were harvested for structural and immuno-fluorescent measurements. Glomerulosclerosis was assessed by immunofluorescence (IF) using an antibody to fibronectin (FN). Visual counting of the number of sclerotic glomeruli as a proportion of the total number of glomeruli per slide was used to calculate the percentage of sclerotic glomeruli. Sections were co-stained with an anti-CD45 antibody to indicate leucocyte infiltration. Tubulointerstitial fibrosis was determined by IF of kidney sections using an antibody to collagen 1 (COL1). Tubulointerstitial fibrosis (TIF) scoring was conducted by visual assessment of the COL1 positive area as a percentage of the total cortical area and was performed blinded. […]
# [4] = test system: laminin α2 in stria of Alport mice; assay: Immunofluorescence of laminin α2 in stria of Alport mice; conditions: Alport mice, sparsentan 200 mg/kg from 3-7 weeks of age (pilot study)
# Experimental: In the pilot study, designed to determine an optimal efficacious dose of sparsentan, Alport mice (3-4 per group) were dosed with vehicle (0.5% methylcellulose 4000 cps/0.25% Tween® 80 in distilled water) or sparsentan at 60 mg/kg or 200 mg/kg from 3 to 7 weeks of age for 28 days. Although 200 mg/kg sparsentan was efficacious in the pilot study, BUN levels were higher than those of Alport mice dosed with 60 mg/kg sparsentan (Table 1; FIG. 2A; FIG. 2B). This observation led to the selection of a 120 mg/kg dose of sparsentan to take forward into the early intervention study. During the pilot study, blood pressure (BP) was measured weekly using the CODA2 tail cuff system. […]
# For the hearing study, wild-type or Alport mice were treated according to daily from 3-8.5 weeks of age by oral gavage with vehicle (0.5% methylcellulose 4000 cps/0.25% Tween® 80 in distilled water) or 120 mg/kg sparsentan or losartan at 20 mg/kg by oral gavage from 3-4 weeks of age (during weaning) and 10 mg/kg in drinking water from 4-7 weeks of age (n=5). The progression of Alport disease was assessed at 7 weeks of age by the amount of proteinuria (via urinalysis reagent strips—data not shown). […] Hearing ability and sensitivity to noise were assessed between 7 and 8 weeks of age by Auditory Brainstem Response (ABR), pre-noise exposure. […]
# [5] = test system: autosomal Alport mice (COL4A3^−/−); assay: Late intervention study in Alport mice (treated from 5-7 weeks of age)
# Excerpt: as §1, §2
# In the late intervention study, wild-type or Alport mice (8 mice per group) were dosed for 14 days according to the same methods used in the early intervention study but beginning at 5 weeks of age, i.e., dosed with vehicle, 120 mg/kg of sparsentan, or 10 mg/kg losartan starting at 5 weeks of age for 14 days. In this study, untreated Alport mice at 5 weeks of age were also used as baseline controls.
# as §3
# For a baseline comparison for late intervention, glomerulosclerosis and fibrosis were determined in kidney samples taken from 5-week-old untreated Alport mice.
# [6] = Alport mice, sparsentan 120 mg/kg, at 7 wk of age, mean ± SD
# [7] = Alport mice late intervention, sparsentan 120 mg/kg, mean ± SD
compound,measurement,setting,value
CCCCC1=NC2(CCCC2)C(=O)N1Cc1ccc(-c2ccccc2S(=O)(=O)Nc2noc(C)c2C)c(COCC)c1 [sparsentan],GBM damage and podocyte effacement (TEM),"[1]; Alport mice, sparsentan 120 mg/kg, early intervention",prevented changes in GBM ultrastructural morphology; also recorded: amelioration
same,UP/C,"[1]; Alport mice, sparsentan 120 mg/kg oral daily from 3 wk, at 4 wk of age, mean ± SD, n = 8",3.8 ± 1.3 mg/mg
same,UP/C,"[1]; Alport mice, sparsentan 120 mg/kg, at 5 wk of age, mean ± SD",10.4 ± 2.8 mg/mg
same,UP/C,"[1]; Alport mice, sparsentan 120 mg/kg, at 6 wk of age, mean ± SD",13.6 ± 3.7 mg/mg
same,BUN,[1]; [6],17.5 ± 3.3 mg/dL
same,Sclerotic Glomeruli (%),[1]; [6],0.8 ± 1.7 %
same,UP/C,[1]; [6],14.0 ± 3.3 mg/mg
same,Fibrosis Score,"[1]; Alport mice, sparsentan 120 mg/kg, at 7 wk, score 0=<5% to 5=75-100% COL1 area, mean ± SD",0.0 ± 0.0
same,Development of nephropathy in Alport mice,"[1]; sparsentan 120 mg/kg 28 days or losartan 20 mg/kg 7 days then 10 mg/kg 21 days, from 3 weeks of age",prevented
same,"UP/C, BUN, glomerulosclerosis, and fibrosis vs. vehicle-treated Alport mice","[1]; sparsentan 120 mg/kg or losartan 20/10 mg/kg from 3 weeks of age, P<0.05",significant attenuation
same,TIF or glomerulosclerosis,"[1]; sparsentan- or losartan-treated Alport mice, early intervention",little to no
same,Hearing ability before noise exposure (ABR),"[2]; 7-8-week-old mice, sparsentan 120 mg/kg or losartan 20/10 mg/kg",did not differ significantly
same,Post-noise hearing loss (ABR threshold post-noise minus pre-noise) vs vehicle-treated Alport mice,"[2]; 16 kHz, 5 days after 10 h noise, sparsentan 120 mg/kg, P<0.05",prevented; also recorded: significantly reduced
same,Increase in strial capillary basement membrane width observed in vehicle-treated Alport mice,[2]; Alport mice treated 3-8.5 weeks of age with sparsentan or losartan,prevented
same,mean SCBM width±SD,"[2]; Alport mice, sparsentan 120 mg/kg from 3-8.5 weeks of age, TEM, n=5",54.7±2.4 nm
same,"Strial capillary basement membrane thickness, single measurements (FIG. 16)","[2]; capillary from a stria of a sparsentan-treated Alport mouse, TEM",52.45 nm and 58.09 nm and 80.38 nm
same,Stria vascularis pathology by TEM,"[2]; treated Alport mice, FIGS. 14-23",substantially fewer extra- and intra-cytosolic vacuoles
same,Lifespan compared to vehicle-treated Alport mice,"[3]; dosing as in early intervention study, continued until 10% loss of peak body weight, P<0.05",significantly longer; also recorded: significantly greater
same,Median lifespan,[3]; sparsentan compared with losartan,the same as losartan
same,Accumulation of laminin α2 in stria,[4],prevented
same,UP/C,"[5]; Alport mice late intervention, sparsentan 120 mg/kg for 14 days from 5 wk of age, mean ± SD, n = 8",16.8 ± 2.8 mg/mg
same,BUN,[5]; [7],16.2 ± 2.4 mg/dL
same,GS (% Sclerotic glomeruli),[5]; [7],8.3 ± 9.2 %
same,TIF,"[5]; Alport mice late intervention, sparsentan 120 mg/kg, tubulointerstitial fibrosis score, mean ± SD",0.8 ± 0.7
same,Nephroprotection in AP mice,"[5]; late intervention, to a greater extent than in the losartan-treated group",significant nephroprotection
same,"Development of fibrosis, CD45^+ leucocyte infiltration, and glomerulosclerosis","[5]; sparsentan 120 mg/kg or losartan 10 mg/kg, 5-7 weeks of age",prevented; also recorded: attenuated
same,"UP/C, BUN, glomerulosclerosis, and fibrosis vs. vehicle-treated Alport mice","[5]; sparsentan 120 mg/kg, late intervention, P<0.05",significantly lower

# Source: patent US11207299B2, “Biphenyl sulfonamide compounds for the treatment of type IV collagen diseases” (Travere Therapeutics, Inc., priority 2018, dated 2021)
